Several values for one entry are separate records, joined by “and”; a condition that tells them apart may be missing. Identical values can stand only once.
Test system: wild-type HIV-1 strain IIIB
Assay: microbe, parasite or virus in culture
Type: cell-based
Settings: Human immunodeficiency virus 1, IIIB, MT2

Compound	EC50 [nM]
CCOP(=O)(COc1ccc(S(=O)(=O)N(CC(C)C)CC(O)C(Cc2ccc(N)cc2)NC(=O)OC2COC3OCCC23)cc1)OCC (centres unmarked) [NH2, OEt]	50 to 500

Same assay, conditions: read-out: EC50

Compound	EC50
CCOP(=O)(CCN1CCN(CC(NC(=O)OC2COC3OCCC23)C(O)CN(CC(C)C)S(=O)(=O)c2ccc(OC)cc2)CC1)OCC (centres unmarked)	50 to 500 nM
CCOC(=O)C(C)OP(=O)(CN1CC=C(CC(NC(=O)OC2COC3OCCC23)C(O)CN(CC(C)C)S(=O)(=O)c2ccc(OC)cc2)CC1)Oc1ccccc1 (centres unmarked)	> 5000 nM
CCOC(=O)C(C)OP(=O)(CCN1CC=C(CC(NC(=O)OC2COC3OCCC23)C(O)CN(CC(C)C)S(=O)(=O)c2ccc(OC)cc2)CC1)Oc1ccccc1 (centres unmarked)	> 5000 nM
COc1ccc(S(=O)(=O)N(CC(C)C)CC(O)C(CC2=CCN(CCP(=O)(O)OC(C)C(=O)O)CC2)NC(=O)OC2COC3OCCC23)cc1 (centres unmarked)	> 5000 nM
CCOC(=O)C(C)OP(=O)(Cc1ccc(NCC(NC(=O)OC2COC3OCCC23)C(O)CN(CC(C)C)S(=O)(=O)c2ccc(OC)cc2)cc1)Oc1ccccc1 (centres unmarked)	< 50 nM
CCOC(=O)C(C)OP(=O)(Cc1ccc(N(C)CC(NC(=O)OC2COC3OCCC23)C(O)CN(CC(C)C)S(=O)(=O)c2ccc(OC)cc2)cc1)Oc1ccccc1 (centres unmarked)	< 50 nM
CCOP(=O)(OCC)c1ccc(CNCC(NC(=O)OC2COC3OCCC23)C(O)CN(CC(C)C)S(=O)(=O)c2ccc(OC)cc2)cc1 (centres unmarked)	< 50 nM
COc1ccc(S(=O)(=O)N(CCN(C)C)CC(O)C(Cc2ccc(O)cc2)NC(=O)OC2COC3OCCC23)cc1 (centres unmarked)	50 to 500 nM
CCOP(=O)(COc1ccc(C[C@H](NC(=O)O[C@H]2CO[C@H]3OCC[C@H]32)[C@H](O)CN(CC(C)C)S(=O)(=O)c2ccc([N+](=O)[O-])cc2)cc1)OCC	< 50 nM
CCOC(=O)C(C)OP(=O)(COc1ccc(C[C@H](NC(=O)O[C@H]2CO[C@H]3OCC[C@H]32)[C@H](O)CN(CC(C)C)S(=O)(=O)c2ccc(O)cc2)cc1)Oc1ccccc1 (some centres unmarked)	< 50 nM
CCOC(=O)C(C)OP(=O)(COc1ccc(C[C@H](NC(=O)O[C@H]2CO[C@H]3OCC[C@H]32)[C@H](O)CN(CC(C)C)S(=O)(=O)c2ccc(OCc3ccccc3)cc2)cc1)Oc1ccccc1 (some centres unmarked)	50 to 500 nM
CC(C)CN(C[C@@H](O)[C@H](Cc1ccc(OCP(=O)(OCc2ccccc2)OC(C)C(=O)OCc2ccccc2)cc1)NC(=O)O[C@H]1CO[C@H]2OCC[C@H]21)S(=O)(=O)c1ccc(OCc2ccccc2)cc1 (some centres unmarked)	> 5000 nM
CC(C)CN(C[C@@H](O)[C@H](Cc1ccc(OCP(=O)(OCc2ccccc2)OC(C)C(=O)OCc2ccccc2)cc1)NC(=O)O[C@H]1CO[C@H]2OCC[C@H]21)S(=O)(=O)c1ccccc1 (some centres unmarked)	50 to 500 nM
CC(C)CN(C[C@@H](O)[C@H](Cc1ccc(OCP(=O)(OCc2ccccc2)OCc2ccccc2)cc1)NC(=O)O[C@H]1CO[C@H]2OCC[C@H]21)S(=O)(=O)c1ccc(C(F)(F)F)cc1	< 50 nM
CC(C)CN(CC(O)C(Cc1ccc(OCP(=O)(OCc2ccccc2)OC(C)C(=O)OCc2ccccc2)cc1)NC(=O)OC1COC2OCCC12)S(=O)(=O)c1ccc[n+]([O-])c1 (centres unmarked)	> 5000 nM
CCOC(=O)C(C)OP(=O)(COc1ccc(CC(NC(=O)OC2COC3OCCC23)C(O)CN(CC(C)C)S(=O)(=O)c2ccc(C=O)cc2)cc1)Oc1ccccc1 (centres unmarked)	< 50 nM
CC(C)CN(CC(O)C(Cc1ccc(OCP(=O)(OCc2ccccc2)OCc2ccccc2)cc1)NC(=O)OC1COC2OCCC12)S(=O)(=O)c1ccc(C=O)cc1 (centres unmarked)	< 50 nM
CCOC(=O)C(C)OP(=O)(COc1ccc(CC(NC(=O)OC2COC3OCCC23)C(O)CN(CC(C)C)S(=O)(=O)c2ccc(CO)cc2)cc1)Oc1ccccc1 (centres unmarked)	< 50 nM
CCOC(=O)C(C)OP(=O)(COc1ccc(CC(NC(=O)OC2COC3OCCC23)C(O)CN(CC(C)C)S(=O)(=O)c2ccc(CN3CCOCC3)cc2)cc1)Oc1ccccc1 (centres unmarked)	50 to 500 nM
COc1ccc(S(=O)(=O)N(CC(C)C)C[C@@H](OP(=O)(O)O)[C@H](Cc2ccc(OCP(=O)(Oc3ccccc3)O[C@@H](C)C(=O)OC(C)C)cc2)NC(=O)O[C@H]2CO[C@H]3OCC[C@H]32)cc1 (some centres unmarked)	< 50 nM
CCOC(=O)[C@H](C)OP(=O)(COc1ccc(C[C@H](NC(=O)O[C@H]2CO[C@H]3OCC[C@H]32)[C@@H](CN(CC(C)C)S(=O)(=O)c2ccc(OC)cc2)OC(=O)[C@H](N)C(C)C)cc1)Oc1ccccc1 (some centres unmarked)	50 to 500 nM
CCOC(=O)[C@H](C)OP(=O)(COc1ccc(C[C@H](NC(=O)O[C@H]2CO[C@H]3OCC[C@H]32)[C@H](O)CN(CC(C)C)S(=O)(=O)c2ccc(COC(=O)[C@H](N)C(C)C)cc2)cc1)Oc1ccccc1 (some centres unmarked)	50 to 500 nM
CCOC(=O)C(CC)OP(=O)(COc1ccc(CC(NC(=O)OC2COC3OCCC23)C(O)CN(CC(C)C)S(=O)(=O)c2ccc(OC)cc2)cc1)Oc1ccccc1 (mixture of isomers) [drawing 659 R1=OPh R2=mix-Hba-Et]	< 50 nM

Compound	EC50
CCCCOC(=O)C(CC)NP(=O)(COc1ccc(CC(NC(=O)OC2COC3OCCC23)C(O)CN(CC(C)C)S(=O)(=O)c2ccc(OC)cc2)cc1)Oc1ccccc1 (single isomer, unassigned) [drawing 657 R1=OPh R2=Aba-Bu]	< 50 nM and 50 to 500 nM
CCOC(=O)C(CC)NP(=O)(COc1ccc(C[C@H](NC(=O)O[C@H]2CO[C@H]3OCC[C@H]32)[C@H](O)CN(CC(C)C)S(=O)(=O)c2ccc(OC)cc2)cc1)Oc1ccccc1 (single isomer, unassigned) [drawing 657 R1=OPh R2=Aba-Et]	< 50 nM and 50 to 500 nM
COc1ccc(S(=O)(=O)N(CC(C)C)C[C@@H](O)[C@H](Cc2ccc(OCP(=O)(Oc3ccccc3)OC(C)C(=O)OC(C)C)cc2)NC(=O)O[C@H]2CO[C@H]3OCC[C@H]32)cc1 (single isomer, unassigned) [drawing 658 R1=OPh R2=Lac-iPr]	< 50 nM
CCOC(=O)C(C)OP(=O)(CCNc1ccc(CC(NC(=O)OC2COC3OCCC23)C(O)CN(CC(C)C)S(=O)(=O)c2ccc(OC)cc2)cc1)Oc1ccccc1 (single isomer, unassigned) [drawing 706]	< 50 nM
CCOC(=O)C(C)OP(=O)(CCNc1ccc(CC(NC(=O)OC2COC3OCCC23)C(O)CN(CC(C)C)S(=O)(=O)c2ccc(OC)cc2)cc1)Oc1ccccc1 (single isomer, unassigned) [drawing 707]	< 50 nM
COc1ccc(S(=O)(=O)N(CC(C)C)CC(O)C(Cc2ccc(OCP(=O)(O)OCc3ccccc3)cc2)NC(=O)OC2COC3OCCC23)cc1 (centres unmarked) [drawing 651 R1=OH R2=OBn]	500 to 5000 nM
CCOP(=O)(O)COc1ccc(CC(NC(=O)OC2COC3OCCC23)C(O)CN(CC(C)C)S(=O)(=O)c2ccc(OC)cc2)cc1 (centres unmarked) [drawing 651 R1=OH R2=OEt]	50 to 500 nM
COc1ccc(S(=O)(=O)N(CC(C)C)C[C@@H](O)[C@H](Cc2ccc(OCP(=O)(Oc3ccccc3)Oc3ccccc3)cc2)NC(=O)O[C@H]2CO[C@H]3OCC[C@H]32)cc1 [drawing 651 R1=OPh R2=OPh]	< 50 nM
COc1ccc(S(=O)(=O)N(CC(C)C)C[C@@H](O)[C@H](Cc2ccc(OCP(=O)(OCOC(=O)OC(C)C)OCOC(=O)OC(C)C)cc2)NC(=O)O[C@H]2CO[C@H]3OCC[C@H]32)cc1 [drawing 651 R1=OPoc R2=OPoc]	500 to 5000 nM
CCOP(=O)(COc1ccc(C[C@H](NC(=O)O[C@H]2CO[C@H]3OCC[C@H]32)[C@H](O)CN(CC(C)C)S(=O)(=O)c2ccc(O)cc2)cc1)OCC [drawing 652 R1=Et R2=Et]	< 50 nM
CC(C)CN(C[C@@H](O)[C@H](Cc1ccc(OCP(=O)(O)O)cc1)NC(=O)O[C@H]1CO[C@H]2OCC[C@H]21)S(=O)(=O)c1ccc(O)cc1 [drawing 652 R1=OH R2=OH]	500 to 5000 nM
CCOC(=O)C(CC)NP(=O)(COc1ccc(C[C@H](NC(=O)O[C@H]2CO[C@H]3OCC[C@H]32)[C@H](O)CN(CC(C)C)S(=O)(=O)c2ccc(OC)cc2)cc1)NC(CC)C(=O)OCC (some centres unmarked) [drawing 655 R1=Aba-Et R2=Aba-Et]	< 50 nM
CCCCOC(=O)C(Cc1ccccc1)NP(=O)(COc1ccc(CC(NC(=O)OC2COC3OCCC23)C(O)CN(CC(C)C)S(=O)(=O)c2ccc(OC)cc2)cc1)NC(Cc1ccccc1)C(=O)OCCCC (centres unmarked) [drawing 655 R1=Phe-Bu R2=Phe-Bu]	< 50 nM
CCOC(=O)C(Cc1ccccc1)NP(=O)(COc1ccc(CC(NC(=O)OC2COC3OCCC23)C(O)CN(CC(C)C)S(=O)(=O)c2ccc(OC)cc2)cc1)NC(Cc1ccccc1)C(=O)OCC (centres unmarked) [drawing 655 R1=Phe-Et R2=Phe-Et]	< 50 nM
CCOC(=O)COP(=O)(COc1ccc(C[C@H](NC(=O)O[C@H]2CO[C@H]3OCC[C@H]32)[C@H](O)CN(CC(C)C)S(=O)(=O)c2ccc(OC)cc2)cc1)OCC(=O)OCC [drawing 656 R1=Glc-Et R2=Glc-Et]	500 to 5000 nM
CCOC(=O)C(C)NP(=O)(COc1ccc(C[C@H](NC(=O)O[C@H]2CO[C@H]3OCC[C@H]32)[C@H](O)CN(CC(C)C)S(=O)(=O)c2ccc(OC)cc2)cc1)OCc1ccccc1 (some centres unmarked) [drawing 657 R1=OBn R2=Ala-Et]	< 50 nM
CCCCOC(=O)C(C)NP(=O)(O)COc1ccc(C[C@H](NC(=O)O[C@H]2CO[C@H]3OCC[C@H]32)[C@H](O)CN(CC(C)C)S(=O)(=O)c2ccc(OC)cc2)cc1 (some centres unmarked) [drawing 657 R1=OH R2=Ala-Bu]	> 5000 nM
COc1ccc(S(=O)(=O)N(CC(C)C)C[C@@H](O)[C@H](Cc2ccc(OCP(=O)(O)NC(C)C(=O)O)cc2)NC(=O)O[C@H]2CO[C@H]3OCC[C@H]32)cc1 (some centres unmarked) [drawing 657 R1=OH R2=Ala-OH]	> 5000 nM
CCCCOC(=O)CNP(=O)(COc1ccc(C[C@H](NC(=O)O[C@H]2CO[C@H]3OCC[C@H]32)[C@H](O)CN(CC(C)C)S(=O)(=O)c2ccc(OC)cc2)cc1)Oc1ccccc1 (some centres unmarked) [drawing 657 R1=OPh R2=Gly-Ru]	50 to 500 nM
CCOC(=O)C(C)OP(=O)(COc1ccc(CC(NC(=O)OC2COC3OCCC23)C(O)CN(CC(C)C)S(=O)(=O)c2ccc(OC)cc2)cc1)OCC(F)(F)F (centres unmarked) [drawing 658 R1=OCH2CF3 R2=Lac-Et]	50 to 500 nM
CCOC(=O)C(C)OP(=O)(COc1ccc(CC(NC(=O)OC2COC3OCCC23)C(O)CN(CC(C)C)S(=O)(=O)c2ccc(OC)cc2)cc1)OCC (centres unmarked) [drawing 658 R1=OEt R2=Lac-Et]	50 to 500 nM
CCOC(=O)COP(=O)(COc1ccc(CC(NC(=O)OC2COC3OCCC23)C(O)CN(CC(C)C)S(=O)(=O)c2ccc(OC)cc2)cc1)Oc1ccccc1 (centres unmarked) [drawing 658 R1=OPh R2=Glc-Et]	< 50 nM
COc1ccc(S(=O)(=O)N(CC(C)C)C[C@@H](O)[C@H](Cc2ccc(OCP(=O)(Oc3ccccc3)OC(C)C(=O)OCCN3CCOCC3)cc2)NC(=O)O[C@H]2CO[C@H]3OCC[C@H]32)cc1 (some centres unmarked) [drawing 658 R1=OPh R2=Lac-EtMor]	> 5000 nM

From patent US20060115815A1 (priority 2002, published 2006)
